{"source": "patent US9493396B2", "about": "“Substituted naphthalene compounds as calcium sensing receptor modulators” (LUPIN ATLANTIS HOLDINGS SA, priority 2013, dated 2016)", "note": "Structures can show the parent of a compound that is named as a salt.", "data": [{"target": "T1, Calcium sensing receptor (hCaSR) (Homo sapiens, UniProt P41180)", "T1 construct": "expressed in transfected cells; host or cells: HEK293 (stably transfected)", "T1 sequence (P41180 20-1078)": "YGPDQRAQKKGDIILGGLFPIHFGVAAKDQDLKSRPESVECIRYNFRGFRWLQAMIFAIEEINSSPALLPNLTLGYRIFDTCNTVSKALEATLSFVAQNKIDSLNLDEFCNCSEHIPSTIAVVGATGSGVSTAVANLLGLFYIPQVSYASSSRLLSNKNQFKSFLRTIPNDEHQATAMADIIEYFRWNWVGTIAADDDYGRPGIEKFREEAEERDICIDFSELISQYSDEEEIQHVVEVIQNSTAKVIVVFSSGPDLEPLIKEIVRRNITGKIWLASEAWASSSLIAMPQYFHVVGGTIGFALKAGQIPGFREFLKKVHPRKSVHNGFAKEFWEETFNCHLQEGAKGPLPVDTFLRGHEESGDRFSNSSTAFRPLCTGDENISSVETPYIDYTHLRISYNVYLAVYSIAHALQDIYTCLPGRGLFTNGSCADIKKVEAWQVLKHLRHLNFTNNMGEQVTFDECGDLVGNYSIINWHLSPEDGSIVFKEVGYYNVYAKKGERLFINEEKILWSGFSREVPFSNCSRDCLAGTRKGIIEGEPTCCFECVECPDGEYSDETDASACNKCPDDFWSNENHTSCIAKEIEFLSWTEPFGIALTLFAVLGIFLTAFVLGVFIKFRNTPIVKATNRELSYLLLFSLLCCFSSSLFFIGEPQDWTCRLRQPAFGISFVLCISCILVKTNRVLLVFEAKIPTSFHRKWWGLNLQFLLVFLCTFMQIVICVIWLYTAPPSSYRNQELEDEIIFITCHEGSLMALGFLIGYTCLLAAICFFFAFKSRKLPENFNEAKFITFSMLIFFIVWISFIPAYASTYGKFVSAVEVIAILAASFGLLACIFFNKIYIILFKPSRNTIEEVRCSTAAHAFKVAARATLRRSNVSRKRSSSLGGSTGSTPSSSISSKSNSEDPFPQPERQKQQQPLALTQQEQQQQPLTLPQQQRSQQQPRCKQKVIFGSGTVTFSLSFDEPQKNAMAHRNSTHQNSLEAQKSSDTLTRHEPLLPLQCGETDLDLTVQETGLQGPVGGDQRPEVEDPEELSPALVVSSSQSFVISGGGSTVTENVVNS", "assay": "In-vitro assay of calcimimetics through modulation of calcium sensing receptor (intracellular calcium increase, FLIPR)", "format": "cell-based", "conditions": "stably transfected HEK293 cells expressing hCaSR; Fluo4NW dye; 0.3 mM CaCl2; 8-point assay; read-out: EC50 in range", "method_in_brief": "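Stably transfected HEK293 cells expressing hCaSR, loaded 30 min with Fluo4NW dye. Intracellular calcium rise measured on FLIPR in 20 mM HEPES buffer with 0.3 mM CaCl2. EC50 derived from 8-point concentration series.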", "units": {"EC50": "nM"}, "values": [{"smiles": "CCOc1cccc([C@@H](C)NC(C)c2cc(-c3ccc(C)c(CCC(=O)OC(C)C)c3)c3ccccc3c2)c1", "note": "(stereo partly drawn) [Example 154, Isopropyl 3-(5-(3-(1-(((R)-1-(3-ethoxyphenyl)ethyl)amino)ethyl)naphthalen-1-yl)-2-methylphenyl) propanoate hydrochloride]", "EC50": "50 to 400"}, {"smiles": "COc1cccc([C@@H](C)NC(C)c2cc(-c3cc(F)cc(N4CCOCC4)c3)c3ccccc3c2)c1", "note": "(stereo partly drawn) [Example 161, 1-(4-(3-Fluoro-5-morpholinophenyl)naphthalen-2-yl)-N-((R)-1-(3-methoxyphenyl)ethyl)ethanamine hydrochloride]", "EC50": "< 20"}, {"smiles": "CC(N[C@H](C)c1cccc(Cl)c1)c1cc(-c2ccc(C(F)(F)F)cc2)c2ccccc2c1", "note": "(stereo partly drawn) [Example 10, (1R)-1-(3-Chlorophenyl)-N-(1-(4-(4-(trifluoromethyl)phenyl)naphthalen-2-yl)ethyl)ethanamine hydrochloride]", "EC50": "< 20"}, {"smiles": "COc1cccc([C@@H](C)NCCCc2cc(-c3ccc(C(F)(F)F)cc3)c3ccccc3c2)c1", "note": "[Example 5, (R)-N-(1-(3-Methoxyphenyl)ethyl)-3-(4-(4-(trifluoromethyl)phenyl)naphthalen-2-yl)propan-1-amine hydrochloride]", "EC50": "20 to 50"}, {"smiles": "COc1cccc([C@@H](C)NC(C)c2cc(-c3ccc(OC)c(F)c3)c3ccccc3c2)c1", "note": "(stereo partly drawn) [Example 7, 1-(4-(3-Fluoro-4-methoxyphenyl)naphthalen-2-yl)-N-((R)-1-(3-methoxyphenyl)ethyl)ethanamine hydrochloride]", "EC50": "< 20"}, {"smiles": "COc1cccc([C@@H](C)NC(C)c2cc(-c3ccc(C(=O)O)cc3)c3ccccc3c2)c1", "note": "(stereo partly drawn) [Example 119, 4-(3-(1-(((R)-1-(3-Methoxyphenyl)ethyl)amino)ethyl)naphthalen-1-yl)benzoic acid hydrochloride]", "EC50": "50 to 400"}, {"smiles": "CCC(N[C@H](C)c1cccc(Cl)c1)c1cc(-c2ccc(F)c(CCC(=O)O)c2)c2ccccc2c1", "note": "(stereo partly drawn) [Example 152, 3-(5-(3-(1-(((R)-1-(3-Chlorophenyl)ethyl)amino)propyl)naphthalen-1-yl)-2-fluorophenyl)propanoic acid hydrochloride]", "EC50": "50 to 400"}, {"smiles": "COc1cc([C@@H](C)NCc2cc(-c3cccc(C(F)(F)F)c3)c3ccccc3c2)ccc1F", "note": "[Example 4, (R)-1-(4-Fluoro-3-methoxyphenyl)-N-((4-(3-(trifluoromethyl)phenyl)naphthalen-2-yl)methyl)ethanamine hydrochloride]", "EC50": "20 to 50"}, {"smiles": "COc1cccc([C@@H](C)NC(C)c2cc(-c3ccc(C(F)(F)F)cc3)c3ccc(F)cc3c2)c1", "note": "(stereo partly drawn) [Example 162, (1R)-1-(3-methoxyphenyl)-N-(1-(7-fluoro-4-(4-(trifluoromethyl)phenyl)naphthalen-2-yl)ethyl)ethanamine hydrochloride]", "EC50": "< 20"}, {"smiles": "COc1cccc([C@@H](C)NCc2cc(-c3ccc(C)c(C(=O)O)c3)c3ccccc3c2)c1", "note": "[Example 90, (R)-5-(3-(((1-(3-Methoxyphenyl)ethyl)amino)methyl)naphthalen-1-yl)-2-methylbenzoic acid hydrochloride]", "EC50": "< 20"}, {"smiles": "COc1cccc([C@@H](C)NC(C)c2cc(-c3ccc(S(C)(=O)=O)cc3)c3ccccc3c2)c1", "note": "(stereo partly drawn) [Example 17, (1R)-1-(3-Methoxyphenyl)-N-(1-(4-(4-(methylsulfonyl)phenyl)naphthalen-2-yl)ethyl)ethanamine hydrochloride]", "EC50": "50 to 400"}, {"smiles": "COc1cccc([C@@H](C)NC(C)c2cc(-c3ccc(OC(F)F)cc3)c3ccccc3c2)c1", "note": "(stereo partly drawn) [Example 21, 1-(4-(4-(Difluoromethoxy)phenyl)naphthalen-2-yl)-N-((R)-1-(3-methoxyphenyl)ethyl)ethanamine hydrochloride]", "EC50": "< 20"}, {"smiles": "CC(N[C@H](C)c1cccc(Cl)c1)c1cc(-c2ccc(C(F)(F)F)c(CCC(=O)O)c2)c2ccccc2c1", "note": "(stereo partly drawn) [Example 146, 3-(5-(3-(1-(((R)-1-(3-Chlorophenyl)ethyl)amino)ethyl)naphthalen-1-yl)-2-(trifluoromethyl)phenyl)propanoic acid hydrochloride]", "EC50": "50 to 400"}, {"smiles": "COc1cccc([C@@H](C)NC(C)c2cc(-c3cccc(C(C)(C)C(=O)O)c3)c3ccccc3c2)c1", "note": "(stereo partly drawn) [Example 139, 2-(3-(3-(1-(((R)-1-(3-Methoxyphenyl)ethyl)amino)ethyl)naphthalen-1-yl)phenyl)-2-methylpropanoic acid hydrochloride]", "EC50": "50 to 400"}, {"smiles": "COc1cccc([C@@H](C)NCc2cc(-c3cccc(C(=O)O)c3F)c3ccccc3c2)c1", "note": "[Example 103, (R)-2-Fluoro-3-(3-(((1-(3-methoxyphenyl)ethyl)amino)methyl)naphthalen-1-yl)benzoic acid hydrochloride]", "EC50": "20 to 50"}, {"smiles": "CC(N[C@H](C)c1cccc(Cl)c1)c1cc(-c2ccc(C3(F)COC3)cc2)c2ccccc2c1", "note": "(mixture of isomers) [Example 23, (1R)-1-(3-chlorophenyl)-N-(1-(4-(4-(3-fluorooxetan-3-yl)phenyl)naphthalen-2-yl)ethyl)ethanamine hydrochloride]", "EC50": "< 20"}, {"smiles": "COc1cc([C@@H](C)NC(C)c2cc(-c3ccc(C(F)(F)F)cc3)c3ccccc3c2)ccc1F", "note": "(mixture of isomers) [Example 11, (1R)-1-(4-Fluoro-3-methoxyphenyl)-N-(1-(4-(4-(trifluoromethyl)phenyl)naphthalen-2-yl)ethyl)ethanamine hydrochloride]", "EC50": "< 20"}, {"smiles": "Cc1ccc(-c2cc(C(C)N[C@H](C)c3cccc(Cl)c3)cc3ccccc23)cc1C(=O)O", "note": "(stereo partly drawn) [Example 117, 5-(3-(1-(((R)-1-(3-Chlorophenyl)ethyl)amino)ethyl)naphthalen-1-yl)-2-methylbenzoic acid hydrochloride]", "EC50": "50 to 400"}, {"smiles": "COc1cccc([C@@H](C)NCc2cc(-c3ccc(C(C)(C)C(=O)O)cc3)c3ccccc3c2)c1", "note": "[Example 111, (R)-2-(4-(3-(((1-(3-Methoxyphenyl)ethyl)amino)methyl)naphthalen-1-yl)phenyl)-2-methylpropanoic acid hydrochloride]", "EC50": "50 to 400"}, {"smiles": "COc1cc([C@@H](C)NCc2cc(-c3ccc(C)c(C(=O)O)c3)c3ccccc3c2)ccc1F", "note": "[Example 93, (R)-5-(3-(((1-(4-Fluoro-3-methoxyphenyl)ethyl)amino)methyl)naphthalen-1-yl)-2-methylbenzoic acid hydrochloride]", "EC50": "50 to 400"}, {"smiles": "COc1cccc([C@@H](C)NC(C)c2cc(-c3ccc(C(C)(C)C(=O)O)cc3)c3ccccc3c2)c1", "note": "(stereo partly drawn) [Example 138, 2-(4-(3-(1-(((R)-1-(3-Methoxyphenyl)ethyl)amino)ethyl)naphthalen-1-yl)phenyl)-2-methylpropanoic acid hydrochloride]", "EC50": "50 to 400"}, {"smiles": "COc1cccc([C@@H](C)NC(C)c2cc(-c3cc(F)cc(CCC(=O)O)c3)c3ccccc3c2)c1", "note": "(stereo partly drawn) [Example 134, 3-(3-Fluoro-5-(3-(1-(((R)-1-(3-methoxyphenyl)ethyl)amino)ethyl)naphthalen-1-yl)phenyl)propanoic acid hydrochloride]", "EC50": "< 20"}, {"smiles": "COc1cc([C@@H](C)NC(C)c2cc(-c3ccc(C)c(C(=O)O)c3)c3ccccc3c2)ccc1F", "note": "(stereo partly drawn) [Example 115, 5-(3-(1-(((R)-1-(4-Fluoro-3-methoxyphenyl)ethyl)amino)ethyl)naphthalen-1-yl)-2-methylbenzoic acid hydrochloride]", "EC50": "50 to 400"}, {"smiles": "CCOc1cccc([C@@H](C)NC(C)c2cc(-c3cc(F)cc(CCC(=O)O)c3)c3ccccc3c2)c1", "note": "(stereo partly drawn) [Example 158, 3-(3-(3-(1-(((R)-1-(3-Ethoxyphenyl)ethyl)amino)ethyl)naphthalen-1-yl)-5-fluorophenyl) propanoic acid hydrochloride]", "EC50": "< 20"}]}]}
